How the values were obtained:
C. rugosa 470141 = experiment: MIC, microtiter plate dilution assay, clinical strain; format: cell-based; details: YMB, 37°C, OD 600 nm after 48 h
Description: (§1) Brevibacillus sp. strains GI-9 and SKDU10 were known to produce class IId bacteriocins identified as laterosporulins a ([Singh et al., 2012]; [Baindara et al., 2016]). Both strains were grown on nutrient agar (NA, Himedia, India). All test strains used in this study were obtained from Microbial Type Culture Collection and Gene bank (MTCC), Chandigarh, India. Clinical Candida strains were obtained from the National Culture Collection of Pathogenic Fungi (NCCPF), PGIMER, Chandigarh, India, and all strains were grown on recommended media.
(§2) The antimicrobial activity of HPLC purified compounds was determined against various test strains including S. aureus MTCC 1430, Vibrio cholera MTCC 3904, Bacillus subtilis MTCC 121, Listeria monocytogenes MTCC 839, C. albicans MTCC 183, C. albicans MTCC 1637, C. albicans MTCC 227, C. tropicalis MTCC 184, C. glabrata MTCC 3019, and C. inconspicua MTCC 1074. Antimicrobial activity was also tested against clinical Candida strains and phytopathogenic fungi viz. Fusarium moniliforme MTCC 158, Alternaria brassicicola MTCC 2102 and Colletotrichum acutatum MTCC 1037. Bacterial and Candida test strains were grown in NB and yeast malt broth (YMB), respectively. Fungal test strains were grown in potato dextrose broth (PDB). Minimum inhibitory concentrations (MICs) of purified compounds were evaluated against test organisms by using a microtiter plate dilution assay. Mid-log-phase test strains (5 × 10^5 CFU/ml) were incubated in a 96-well plate with different concentrations of the lipopeptides for 24–48 h at 37°C (final volume of 200 μl). OD was measured at 600 nm after 24 and 48 h for bacteria and yeast, respectively, using an ELISA microplate reader (Thermo Scientific, United States). MIC against phytopathogenic fungi was determined using the 96-well microtiter plate method ([Sharma et al., 2020]).

C. parapsilosis 450030 = experiment: as above; format: cell-based; details: YMB, 37°C, OD 600 nm after 48 h
Description: as §1, §2

C. krusei 440009 = experiment: as above; format: cell-based; details: YMB, 37°C, OD 600 nm after 48 h
Description: as §1, §2

C. haemulonii 470125 = experiment: as above; format: cell-based; details: YMB, 37°C, OD 600 nm after 48 h
Description: as §1, §2

C. tropicalis 420024 = experiment: as above; format: cell-based; details: YMB, 37°C, OD 600 nm after 48 h
Description: as §1, §2

C. kefyr 410004 = experiment: as above; format: cell-based; details: YMB, 37°C, OD 600 nm after 48 h
Description: as §1, §2

C. auris 470126 = experiment: as above; format: cell-based; details: YMB, 37°C, OD 600 nm after 48 h
Description: as §1, §2

C. inconspicua MTCC 1074 = experiment: MIC, microtiter plate dilution assay; format: cell-based; details: YMB, 5 × 10^5 CFU/ml, 37°C, OD 600 nm after 48 h
Description: as §2

C. haemulonii MTCC 2766 = experiment: MIC, microtiter plate dilution assay; format: cell-based; details: YMB, 5 × 10^5 CFU/ml, 37°C, OD 600 nm after 48 h
Description: as §2

C. tropicalis MTCC 184 = experiment: MIC, microtiter plate dilution assay; format: cell-based; details: YMB, 5 × 10^5 CFU/ml, 37°C, OD 600 nm after 48 h
Description: as §2

C. glabrata MTCC 3019 = experiment: MIC, microtiter plate dilution assay; format: cell-based; details: YMB, 5 × 10^5 CFU/ml, 37°C, OD 600 nm after 48 h
Description: as §2

C. acutatum MTCC1037 = experiment: MIC against phytopathogenic fungi, 96-well microtiter plate method; format: cell-based, Colletotrichum acutatum; details: PDB
Description: as §2

How did the MIC value (C. rugosa 470141) turn out when “Dhb-Tyr-Orn-Ile-Val-Val-Lys-Val-Leu-Asp-Val-Glu [BLL, bogorol like lipopeptide purified from Brevibacillus sp. strain SKDU10; 12 amino acids and C17 hydroxy fatty acid side chain]” was run?
The MIC value was 240 to 250 µg/mL.

And the MIC value (C. parapsilosis 450030)?
Its MIC value is 290 to 310 µg/mL.

What about the MIC value (C. krusei 440009) of the same substance?
Its MIC value is 240 to 250 µg/mL.

What about the MIC value (C. haemulonii 470125) of the same substance?
Its MIC value is 245 to 255 µg/mL.

And the MIC value (C. tropicalis 420024)?
Its MIC value is 300 to 320 µg/mL.

What about the MIC value (C. kefyr 410004) of the same substance?
The MIC value was 190 to 210 µg/mL.

And the MIC value (C. auris 470126)?
The MIC value was 140 to 160 µg/mL.

What about the MIC value (C. inconspicua MTCC 1074) of the same substance?
The MIC value was 100 to 110 µg/mL.

And the MIC value (C. haemulonii MTCC 2766)?
Its MIC value is 340 to 360 µg/mL.

What about the MIC value (C. tropicalis MTCC 184) of the same substance?
Its MIC value is 290 to 310 µg/mL.

And the MIC value (C. glabrata MTCC 3019)?
The MIC value was 290 to 300 µg/mL.

What about the MIC value (C. acutatum MTCC1037) of the same substance?
The MIC value was 430 to 450 µg/mL.

Reference: publication PMC8589628, “Characterization and Antimicrobial Studies of Iturin-Like and Bogorol-Like Lipopeptides From Brevibacillus spp. Strains GI9 and SKDU10” (Frontiers in Microbiology, 2021)
